Source: patent US8932597B2 (priority 2008, dated 2015)

Legend:
[1] = system: anti-M2 human monoclonal antibody Z3G1; assay type: binding
HuM2e antibody 23K12 = assay type: binding, human

Row | Substance | Signal (peptides that show specific binding to Z3G1) [1] | Signal (peptides that bind to 23K21 and 8I10) (HuM2e antibody 23K12) | Signal (peptides that bind to Z3G1) [1]
1 | 161 (CPIRNEWGSRSNDSSDCSLLTEVETC; epitope peptide) [compound 161] | 2759 | 1206 | –
2 | 444 (SLLTEVETPIRNEWGCRC; epitope peptide) [compound 444] | – | 898 | 2478
3 | 430 (SLLTEVETPIRNEWGCRCNDSRD; epitope peptide) [compound 430] | – | 833 | 2373
4 | 697 (SLLTEVETPIRNEWGCRINDSSD; epitope peptide) [compound 697] | 2409 | 718 | –
5 | 366 (SLLTEVETPIRNEWWCRCNDSSD; epitope peptide) [compound 366] | 2406 | 1498 | –
6 | 512 (SLLTEVETPIRNQWGCRCNDSSD; epitope peptide) [compound 512] | 2402 | 1039 | –
7 | 628 (SLLTEVETPIRNEWGCRCMDSSD; epitope peptide) [compound 628] | – | 786 | 2470
8 | 661 (SLLTEVETPIRQEWGCRCNDSSD; epitope peptide) [compound 661] | 2367 | 748 | –
9 | 286 (CSLLTEVGMSLLTCV; epitope peptide) [compound 286] | – | 2311 | 2768
10 | 394 (SLLTEVETPIRNEWGCRCNMSSD; epitope peptide) [compound 394] | – | 1133 | 2574
11 | 268 (SLLTEVETPIRNECGCRCNDSSD; epitope peptide) [compound 268] | 2554 | 682 | –
12 | 299 (SLLTEVGCLCTCV; epitope peptide) [compound 299] | 2346 | 1963 | –
13 | 461 (SLLTEVETPLRNEWGCRCNDSSD; epitope peptide) [compound 461] | 2239 | 1268 | –
14 | 283 (CSLLTEVGSLLTEV; epitope peptide) [compound 283] | 2903 | 2494 | –
15 | 488 (SLLTEVETPIHNEWGCRCNDSSD; epitope peptide) [compound 488] | 2121 | 1112 | –
16 | 677 (SLLTEVETPIQNEWGCRCNDSSD; epitope peptide) [compound 677] | 2372 | 731 | –
17 | 317 (MSLLTEVGMSLCTEV; epitope peptide) [compound 317] | – | 1804 | 2895
18 | 446 (SLLTEVETPIRNEWGCRCND; epitope peptide) [compound 446] | – | 738 | 2276
19 | 349 (SLATEVETPIRNEWGCRCNDSSD; epitope peptide) [compound 349] | 2145 | 1583 | –

Row | Substance | Signal (peptides that show specific binding to Z3G1) [1] | Signal (peptides that bind to 23K21 and 8I10) (HuM2e antibody 23K12) | Signal (peptides that bind to Z3G1) [1]
20 | 127 (CSLLTEVETCSLLTEVETC; epitope peptide) [compound 127] | 2555 | 1647 | –
21 | 384 (SLLTEVETPIRNEYGCRCNDSSD; epitope peptide) [compound 384] | 2426 | 1377 | –
22 | 453 (SLLTEVETPIRNEAGCRCNDSSD; epitope peptide) [compound 453] | 2383 | 1311 | –
23 | 609 (SLLTEVETHIRNEWGCRCNDSSD; epitope peptide) [compound 609] | 2288 | 816 | –
24 | 377 (SLKTEVETPIRNEWGCRCNDSSD; epitope peptide) [compound 377] | 1453 | 1434 | –
25 | 354 (SLLTEVGCSLLTEV; epitope peptide) [compound 354] | 2511 | 1555 | –
26 | 491 (SLLTEVETLIRNEWGCRCNDSSD; epitope peptide) [compound 491] | 2225 | 1109 | –
27 | 674 (SLLTEVETPIRNEWGCRCTDSSD; epitope peptide) [compound 674] | – | 733 | 2253
28 | 556 (SLLTELETPIRNEWGCRCNDSSD; epitope peptide) [compound 556] | 1380 | 900 | –
29 | 652 (SLLTEVEEPIRNEWGCRCNDSSD; epitope peptide) [compound 652] | 2362 | 757 | –
30 | 708 (SLLTEVETPIRNEGGCRCNDSSD; epitope peptide) [compound 708] | 2486 | 708 | –
31 | 698 (SLLTEVETPIRDEWGCRCNDSSD; epitope peptide) [compound 698] | 2187 | 716 | –
32 | 302 (ASLLTEVGSCLTEV; epitope sequence) [compound 302] | 2770 | 1944 | –
33 | 595 (SLLTEVETPIRNEWGWRCNDSSD; epitope peptide) [compound 595] | 2439 | 838 | –
34 | 448 (SLLTEVETPIRNEWGCRCNDSS; epitope peptide) [compound 448] | – | 833 | 2325
35 | 464 (SLLTEVGSLCTEV; epitope peptide) [compound 464] | 2219 | 1256 | –
36 | 413 (SLLTEVETPIRNEWGCRCNDPSD; epitope peptide) [compound 413] | – | 797 | 2450
37 | 296 (MSLLTEVGMCLLTEV; epitope peptide) [compound 296] | – | 2023 | 2809
38 | 373 (CSLLTECGMSLLTEV; epitope peptide) [compound 373] | – | 1458 | 1235

Row | Substance | Signal (peptides that show specific binding to Z3G1) [1] | Signal (peptides that bind to 23K21 and 8I10) (HuM2e antibody 23K12) | Signal (peptides that bind to Z3G1) [1]
39 | 421 (SLLTEVETPIRNEWGCRCNDSED; epitope peptide) [compound 421] | – | 944 | 2527
40 | 706 (SLLTEVETPIRNEWGCRCADSSD; epitope peptide) [compound 706] | – | 712 | 2329
41 | 285 (MSLLTEVGMSLLTCV; epitope peptide) [compound 285] | – | 2389 | 2872
42 | 610 (SLLTEVETDIRNEWGCRCNDSSD; epitope peptide) [compound 610] | 2392 | 813 | –
43 | 297 (CSLLTEVGMCLCTCV; epitope peptide) [compound 297] | – | 1972 | 2649
44 | 386 (SLLTEVETPIRNEVGCRCNDSSD; epitope peptide) [compound 386] | 2411 | 1371 | –
45 | 692 (SLLTEVETPILNEWGCRCNDSSD; epitope peptide) [compound 692] | 2363 | 721 | –
46 | 631 (SLLTEVETPIRKEWGCRCNDSSD; epitope peptide) [compound 631] | 2437 | 782 | –
47 | 482 (CLCTCVGSLLTEV; epitope peptide) [compound 482] | 1953 | 1178 | –
48 | 431 (SLLTEVETPIRNEWGCRCNDSTD; epitope peptide) [compound 431] | – | 701 | 2205
49 | 496 (SCLTEVGSLLCEV; epitope peptide) [compound 496] | 1896 | 1095 | –
50 | 689 (SLLTEVETPIRNEWGCRCGDSSD; epitope peptide) [compound 689] | – | 724 | 2343
51 | 289 (MSLCTEVGMSLCTEV; epitope peptide) [compound 289] | – | 2153 | 1093
52 | 564 (SLLTEVELPIRNEWGCRCNDSSD; epitope peptide) [compound 564] | 2407 | 886 | –
53 | 626 (SLLTEVETPIRNEWGCRCYDSSD; epitope peptide) [compound 626] | – | 791 | 2385
54 | 577 (SLLTEVETPIRNIWGCRCNDSSD; epitope peptide) [compound 577] | 2490 | 862 | –
55 | 397 (SLLTEVETPIRNEWGCRCNQSSD; epitope peptide) [compound 397] | – | 842 | 2376
56 | 519 (SLLTEVETPIRNEWGCRSNDSSD; epitope peptide) [compound 519] | 2344 | 1016 | –
57 | 582 (SLLTEVETPIRAEWGCRCNDSSD; epitope peptide) [compound 582] | 2306 | 856 | –
